Results: the NIST ThermoML archive (doi:10.1016/j.jct.2015.07.042)
± gives the expanded uncertainty stated by the source.

What was measured:
[1] = activity coefficient (dimensionless); of the first substance listed, at infinite dilution; xn = mol fraction of the nth substance listed; settings: 101 kPa, Liquid, Chromatography, x1 = 0
[2] = 333.15 K; 100 kPa; Liquid; Vibrating tube method
[3] = 338.15 K; 100 kPa; Liquid; Vibrating tube method
[4] = 343.15 K; 100 kPa; Liquid; Vibrating tube method
[5] = 348.15 K; 100 kPa; Liquid; Vibrating tube method
[6] = 353.15 K; 100 kPa; Liquid; Vibrating tube method
[7] = 358.15 K; 100 kPa; Liquid; Vibrating tube method
[8] = 363.15 K; 100 kPa; Liquid; Vibrating tube method
[9] = 368.15 K; 100 kPa; Liquid; Vibrating tube method

Row | SMILES | activity coefficient ([1]; 358.15 K) | activity coefficient ([1]; 368.15 K) | activity coefficient ([1]; 378.15 K) | activity coefficient ([1]; 388.15 K) | also measured
1 | CCCCn1cc[n+](C)c1.CS(=O)(=O)[O-] [1-butyl-3-methylimidazolium methanesulfonate] |  |  |  |  | mass density [2]: 1150.6 ± 1.1 kg/m3; mass density [3]: 1147.4 ± 1.1 kg/m3; mass density [4]: 1144.3 ± 1.1 kg/m3; mass density [5]: 1141.2 ± 1 kg/m3; mass density [6]: 1137.9 ± 1 kg/m3; mass density [7]: 1134.9 ± 1 kg/m3; mass density [8]: 1131.9 ± 1 kg/m3; mass density [9]: 1128.8 ± 1 kg/m3; mass density (373.15 K; 100 kPa; Liquid; Vibrating tube method): 1125.8 ± 1 kg/m3
2 | CCCCn1cc[n+](C)c1.[Cl-] [1-butyl-3-methylimidazolium chloride] |  |  |  |  | mass density (308.15 K; 100 kPa; Metastable liquid; Vibrating tube method): 1079.4 ± 1 kg/m3; mass density (313.15 K; 100 kPa; Metastable liquid; Vibrating tube method): 1076.6 ± 1 kg/m3; mass density (318.15 K; 100 kPa; Metastable liquid; Vibrating tube method): 1073.7 ± 1 kg/m3; mass density (323.15 K; 100 kPa; Metastable liquid; Vibrating tube method): 1070.9 ± 1 kg/m3; mass density (328.15 K; 100 kPa; Metastable liquid; Vibrating tube method): 1068.1 ± 1 kg/m3; mass density (333.15 K; 100 kPa; Metastable liquid; Vibrating tube method): 1065.2 ± 1 kg/m3; mass density (338.15 K; 100 kPa; Metastable liquid; Vibrating tube method): 1062.4 ± 1 kg/m3; mass density (343.15 K; 100 kPa; Vibrating tube method; Liquid): 1059.6 ± 1 kg/m3; mass density (348.15 K; 100 kPa; Vibrating tube method; Liquid): 1056.9 ± 1 kg/m3; mass density (353.15 K; 100 kPa; Vibrating tube method; Liquid): 1054.3 ± 1 kg/m3; mass density (358.15 K; 100 kPa; Vibrating tube method; Liquid): 1051.7 ± 1 kg/m3; mass density (363.15 K; 100 kPa; Vibrating tube method; Liquid): 1049 ± 1 kg/m3; mass density (368.15 K; 100 kPa; Vibrating tube method; Liquid): 1046.4 ± 1 kg/m3; mass density (373.15 K; 100 kPa; Vibrating tube method; Liquid): 1043.9 ± 1 kg/m3
3 | CCCC(=O)OC [methyl butanoate] + CCCCn1cc[n+](C)c1.COP(=O)([O-])OC | 4.93 ± 0.34 | 5.04 ± 0.34 | 5.17 ± 0.35 | 5.39 ± 0.37 | 
4 | CCCCCCCCC [nonane] + CCCCn1cc[n+](C)c1.[Cl-] | 476 ± 33 | 433 ± 30 | 394 ± 27 | 376 ± 26 | 
5 | C1CCCCCC1 [cycloheptane] + CCCCn1cc[n+](C)c1.CS(=O)(=O)[O-] | 44.2 ± 3 | 43.3 ± 3 | 42.6 ± 2.9 | 42.2 ± 2.9 | 
6 | CCCO [propan-1-ol] + CCCCn1cc[n+](C)c1.COP(=O)([O-])OC |  |  |  |  | activity coefficient ([1]; 398.15 K): 0.197 ± 0.029; activity coefficient ([1]; 408.15 K): 0.218 ± 0.029; activity coefficient ([1]; 418.15 K): 0.239 ± 0.029; activity coefficient ([1]; 428.15 K): 0.264 ± 0.03
7 | CCC(C)O (centres undefined) [butan-2-ol] + CCCCn1cc[n+](C)c1.CS(=O)(=O)[O-] |  |  |  |  | activity coefficient ([1]; 398.15 K): 1.11 ± 0.071; activity coefficient ([1]; 408.15 K): 1.18 ± 0.075; activity coefficient ([1]; 418.15 K): 1.25 ± 0.081; activity coefficient ([1]; 428.15 K): 1.33 ± 0.087
8 | C1CCCC1 [cyclopentane] + CCCCn1cc[n+](C)c1.COP(=O)([O-])OC | 8.76 ± 0.6 | 8.59 ± 0.59 | 8.41 ± 0.57 | 8.33 ± 0.57 | 
9 | CCOC(C)=O [ethyl acetate] + CCCCn1cc[n+](C)c1.COP(=O)([O-])OC | 3.81 ± 0.26 | 3.91 ± 0.27 | 4.01 ± 0.27 | 4.18 ± 0.28 | 
10 | C1COCCO1 [1,4-dioxane] + CCCCn1cc[n+](C)c1.COP(=O)([O-])OC | 2.13 ± 0.14 | 2.19 ± 0.15 | 2.25 ± 0.15 | 2.37 ± 0.16 | 
11 | C=CCCCCCCCC [1-decene] + CCCCn1cc[n+](C)c1.[Cl-] | 323 ± 22 | 306 ± 21 | 285 ± 20 | 277 ± 19 | 
12 | CCO [ethanol] + CCCCn1cc[n+](C)c1.[Cl-] |  |  |  |  | activity coefficient ([1]; 398.15 K): 0.297 ± 0.031; activity coefficient ([1]; 408.15 K): 0.313 ± 0.031; activity coefficient ([1]; 418.15 K): 0.332 ± 0.032; activity coefficient ([1]; 428.15 K): 0.353 ± 0.032
13 | c1ccsc1 [thiophene] + CCCCn1cc[n+](C)c1.[Cl-] | 2.04 ± 0.14 | 2.16 ± 0.15 | 2.27 ± 0.15 | 2.41 ± 0.16 | 
14 | C1CCCCCCC1 [cyclooctane] + CCCCn1cc[n+](C)c1.[Cl-] | 79.5 ± 5.5 | 75.4 ± 5.2 | 71.1 ± 4.9 | 68.6 ± 4.7 | 
15 | CCCCn1cc[n+](C)c1.COP(=O)([O-])OC [1-butyl-3-methyl-1H-imidazolium dimethylphosphate] |  |  |  |  | mass density (293.15 K; 100 kPa; Liquid; Vibrating tube method): 1166.5 ± 1.5 kg/m3; mass density (298.15 K; 100 kPa; Liquid; Vibrating tube method): 1163.2 ± 1.5 kg/m3; mass density (303.15 K; 100 kPa; Liquid; Vibrating tube method): 1159.4 ± 1.5 kg/m3; mass density (308.15 K; 100 kPa; Liquid; Vibrating tube method): 1156.2 ± 1.5 kg/m3; mass density (313.15 K; 100 kPa; Liquid; Vibrating tube method): 1152.7 ± 1.5 kg/m3; mass density (318.15 K; 100 kPa; Liquid; Vibrating tube method): 1149.5 ± 1.5 kg/m3; mass density (323.15 K; 100 kPa; Liquid; Vibrating tube method): 1146.1 ± 1.4 kg/m3; mass density (328.15 K; 100 kPa; Liquid; Vibrating tube method): 1143 ± 1.4 kg/m3; mass density [2]: 1139.7 ± 1.4 kg/m3; mass density [3]: 1136.5 ± 1.4 kg/m3; mass density [4]: 1133.3 ± 1.4 kg/m3; mass density [5]: 1130.1 ± 1.4 kg/m3; mass density [6]: 1126.9 ± 1.4 kg/m3; mass density [7]: 1123.7 ± 1.4 kg/m3; mass density [8]: 1120.6 ± 1.4 kg/m3; mass density [9]: 1117.4 ± 1.4 kg/m3
16 | Cc1ccc(C)cc1 [1,4-dimethylbenzene] + CCCCn1cc[n+](C)c1.[Cl-] | 13.6 ± 0.93 | 13.7 ± 0.94 | 14 ± 0.96 | 14.3 ± 0.98 | 
17 | CCOC(C)(C)C [2-ethoxy-2-methylpropane] + CCCCn1cc[n+](C)c1.[Cl-] | 64.8 ± 4.4 | 59.3 ± 4.1 | 55.7 ± 3.8 | 53.3 ± 3.6 | 
18 | C#CCCCCCC [1-octyne] + CCCCn1cc[n+](C)c1.CS(=O)(=O)[O-] | 17.8 ± 1.2 | 18.6 ± 1.3 | 19.5 ± 1.3 | 20.4 ± 1.4 | 
19 | CCCCCCCCC [nonane] + CCCCn1cc[n+](C)c1.CS(=O)(=O)[O-] | 251 ± 17 | 239 ± 16 | 229 ± 16 | 223 ± 15 | 
20 | CCCC=O [butanal] + CCCCn1cc[n+](C)c1.[Cl-] | 5.24 ± 0.36 | 5.31 ± 0.36 | 5.43 ± 0.37 | 5.54 ± 0.38 | 
21 | C#CCCCCCC [1-octyne] + CCCCn1cc[n+](C)c1.[Cl-] | 18.3 ± 1.2 | 19.2 ± 1.3 | 19.7 ± 1.4 | 20.4 ± 1.4 | 
22 | CCCC(C)=O [pentan-2-one] + CCCCn1cc[n+](C)c1.[Cl-] | 7.59 ± 0.52 | 7.71 ± 0.53 | 7.78 ± 0.53 | 8.01 ± 0.55 | 
23 | C1COCCO1 [1,4-dioxane] + CCCCn1cc[n+](C)c1.CS(=O)(=O)[O-] | 2.33 ± 0.16 | 2.41 ± 0.16 | 2.49 ± 0.17 | 2.62 ± 0.18 | 
24 | C#CCCCCCC [1-octyne] + CCCCn1cc[n+](C)c1.COP(=O)([O-])OC | 6.04 ± 0.41 | 6.22 ± 0.42 | 6.48 ± 0.44 | 6.74 ± 0.46 | 
25 | CCC(=O)OC [methyl propanoate] + CCCCn1cc[n+](C)c1.CS(=O)(=O)[O-] | 4.43 ± 0.3 | 4.56 ± 0.31 | 4.68 ± 0.32 | 4.9 ± 0.33 | 
26 | CCC(=O)OC [methyl propanoate] + CCCCn1cc[n+](C)c1.COP(=O)([O-])OC | 3.56 ± 0.24 | 3.65 ± 0.25 | 3.76 ± 0.26 | 3.93 ± 0.27 | 
27 | CCCCCCCC [octane] + CCCCn1cc[n+](C)c1.[Cl-] | 331 ± 23 | 302 ± 21 | 268 ± 18 | 258 ± 18 | 
28 | C#CCCCCC [1-heptyne] + CCCCn1cc[n+](C)c1.COP(=O)([O-])OC | 4.21 ± 0.29 | 4.48 ± 0.31 | 4.7 ± 0.32 | 4.93 ± 0.34 | 
